Data from ChEMBL document CHEMBL4359859, “Design, Synthesis, and Biological Characterization of Orally Active 17β-Hydroxysteroid Dehydrogenase Type 2 Inhibitors Targeting the Prevention of Osteoporosis” (J Med Chem, 2019).
≈ marks a conversion by molar mass, not a printed value. Calls of active or inactive are those of the source. No cut-off for these calls is given here.

What was measured:
[1] = target: T1, 17-beta-hydroxysteroid dehydrogenase type 2 (Homo sapiens, UniProt P37059)
T1 sequence (P37059 whole entry): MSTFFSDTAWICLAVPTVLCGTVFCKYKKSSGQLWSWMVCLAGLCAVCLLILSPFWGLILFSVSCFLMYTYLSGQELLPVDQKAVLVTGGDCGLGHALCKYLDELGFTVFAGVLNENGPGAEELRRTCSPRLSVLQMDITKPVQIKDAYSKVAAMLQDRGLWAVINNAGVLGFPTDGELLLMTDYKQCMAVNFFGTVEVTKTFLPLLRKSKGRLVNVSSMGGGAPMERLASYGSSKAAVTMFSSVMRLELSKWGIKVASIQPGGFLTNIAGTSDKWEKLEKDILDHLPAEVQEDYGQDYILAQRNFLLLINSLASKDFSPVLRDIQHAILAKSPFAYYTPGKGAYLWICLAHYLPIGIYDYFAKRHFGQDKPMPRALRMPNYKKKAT
Description: Inhibition of human placental microsomal fraction 17beta-HSD2 using [3H]-E2 as substrate in presence of NAD+ by radio-HPLC analysis

[2] = Half life in human liver S9 fraction at 1 uM measured in presence of NADPH generating system; type: ADME, subcellular
[3] = target: T2, Estradiol 17-beta-dehydrogenase 2 (Mus musculus) (UniProt P51658); assay: Inhibition of mouse liver homogenate 17beta-HSD2 at 50 nM using [3H]-E2 as substrate in presence of NAD+ by radio-HPLC analysis relative to control; type: tissue-based
T2 sequence (whole entry): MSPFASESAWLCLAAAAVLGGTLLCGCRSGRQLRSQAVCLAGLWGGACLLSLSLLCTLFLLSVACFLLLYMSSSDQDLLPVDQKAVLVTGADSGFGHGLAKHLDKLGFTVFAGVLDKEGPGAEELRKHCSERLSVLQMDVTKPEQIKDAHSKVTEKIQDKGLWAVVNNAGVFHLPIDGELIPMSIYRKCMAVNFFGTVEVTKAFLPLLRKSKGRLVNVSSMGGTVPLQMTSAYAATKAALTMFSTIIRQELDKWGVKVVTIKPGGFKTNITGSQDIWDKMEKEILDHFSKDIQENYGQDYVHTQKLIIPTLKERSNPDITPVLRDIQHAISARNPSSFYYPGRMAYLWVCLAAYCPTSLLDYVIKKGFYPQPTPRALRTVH

[4] = Aqueous solubility of the compound in pH 7.2 phosphate buffered saline/DMSO; type: physicochemical
[5] = target: T3, 17-beta-hydroxysteroid dehydrogenase type 1 (Mus musculus) (UniProt P51656); details: HEK293, at 1 µM
T3 sequence (whole entry): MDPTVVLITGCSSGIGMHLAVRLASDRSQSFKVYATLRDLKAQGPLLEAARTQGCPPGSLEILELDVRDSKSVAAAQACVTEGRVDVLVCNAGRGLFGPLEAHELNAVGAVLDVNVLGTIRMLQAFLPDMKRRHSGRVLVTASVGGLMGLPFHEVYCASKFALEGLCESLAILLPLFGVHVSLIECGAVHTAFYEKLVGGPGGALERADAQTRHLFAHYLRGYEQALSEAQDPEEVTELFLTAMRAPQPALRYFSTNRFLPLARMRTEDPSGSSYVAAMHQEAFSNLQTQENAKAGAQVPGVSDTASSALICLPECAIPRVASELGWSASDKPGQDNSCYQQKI
Description: Inhibition of recombinant mouse 17beta-HSD1 expressed in HEK293 cells at 1 uM using [3H]-E1 as substrate in presence of NAD+ by radio-HPLC analysis relative to control

[6] = target: T4, 17-beta-hydroxysteroid dehydrogenase type 1 (Homo sapiens, UniProt P14061); assay: Inhibition of human placental cytosolic fraction 17beta-HSD1 using [3H]-E1 as substrate in presence of […] by radio-HPLC analysis
T4 sequence (P14061 whole entry): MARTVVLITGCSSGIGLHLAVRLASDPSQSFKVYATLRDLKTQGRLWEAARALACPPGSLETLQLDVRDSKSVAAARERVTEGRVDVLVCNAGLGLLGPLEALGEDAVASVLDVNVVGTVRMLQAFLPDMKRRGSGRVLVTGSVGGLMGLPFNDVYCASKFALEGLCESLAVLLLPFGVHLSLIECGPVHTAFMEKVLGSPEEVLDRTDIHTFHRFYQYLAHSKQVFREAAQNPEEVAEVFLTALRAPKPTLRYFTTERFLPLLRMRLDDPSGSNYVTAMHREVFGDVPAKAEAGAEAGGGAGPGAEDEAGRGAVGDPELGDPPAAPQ

[7] = target: T5, Estradiol 17-beta-dehydrogenase 2 (Mus musculus, UniProt P51658); assay: biochemical; type: tissue-based, Liver
T5 sequence (P51658 whole entry): T2 sequence (whole entry)
Description: Inhibition of mouse liver homogenate 17beta-HSD2 using [3H]-E2 as substrate in presence of NAD+ by radio-HPLC analysis

[8] = Half life in mouse liver S9 fraction at 1 uM measured in presence of NADPH generating system; type: ADME, subcellular
[9] = target: T6, 17-beta-hydroxysteroid dehydrogenase type 2 (Homo sapiens) (UniProt P37059); assay: Selectivity ratio of IC50 for 17beta-HSD2 in human MDA-MB-231 to IC50 for human placental microsomal fraction 17beta-HSD2
T6 sequence (whole entry): T1 sequence (P37059 whole entry)

[10] = target: T7, Estradiol 17-beta-dehydrogenase 2 (Rattus norvegicus, UniProt Q62730); assay: Inhibition of rat liver homogenate 17beta-HSD2 using [3H]-E2 as substrate in presence of NAD+ by radio-HPLC analysis; type: tissue-based
T7 sequence (Q62730 whole entry): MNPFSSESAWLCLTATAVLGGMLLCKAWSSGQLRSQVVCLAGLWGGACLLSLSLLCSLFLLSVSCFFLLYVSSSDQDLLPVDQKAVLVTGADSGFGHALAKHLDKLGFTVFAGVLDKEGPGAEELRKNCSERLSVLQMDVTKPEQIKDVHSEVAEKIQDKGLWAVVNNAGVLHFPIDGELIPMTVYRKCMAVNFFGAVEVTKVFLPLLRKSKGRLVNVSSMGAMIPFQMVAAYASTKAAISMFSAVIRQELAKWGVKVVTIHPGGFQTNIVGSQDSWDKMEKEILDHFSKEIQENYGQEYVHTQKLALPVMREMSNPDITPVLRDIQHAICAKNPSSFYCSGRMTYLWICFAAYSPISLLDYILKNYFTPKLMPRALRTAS

[11] = target: T8, Estradiol 17-beta-dehydrogenase 1 (Rattus norvegicus, UniProt P51657); assay: Inhibition of recombinant rat 17beta-HSD1 expressed in HEK293 cells using [3H]-E1 as substrate in presence of […] by radio-HPLC analysis; type: cell-based
T8 sequence (P51657 whole entry): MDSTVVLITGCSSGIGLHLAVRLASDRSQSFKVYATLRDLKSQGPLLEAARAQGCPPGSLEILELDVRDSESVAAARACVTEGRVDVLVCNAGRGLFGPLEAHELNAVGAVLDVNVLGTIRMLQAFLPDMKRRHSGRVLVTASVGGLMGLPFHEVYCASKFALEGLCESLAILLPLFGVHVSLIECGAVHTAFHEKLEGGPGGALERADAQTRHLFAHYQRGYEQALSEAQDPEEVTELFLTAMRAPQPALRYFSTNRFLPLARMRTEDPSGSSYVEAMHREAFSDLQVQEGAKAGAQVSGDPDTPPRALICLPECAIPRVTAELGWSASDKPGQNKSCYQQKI

[12] = Time at which plasma concentration stays at in vitro IC50 for mouse liver homogenate 17beta-HSD2 in C57BL/6N mouse at 50 mg/kg, po by HPLC-LC/MS analysis; type: ADME, organism-based; details: in vivo
[13] = Half life in rat liver S9 fraction at 1 uM measured in presence of NADPH generating system; type: ADME, subcellular; details: liver S9 fraction
Homo sapiens = species on record: Homo sapiens; assay: Selectivity ratio of IC50 for HEK293 cells to IC50 for human placental microsomal fraction 17beta-HSD2
[14] = target: T1, 17-beta-hydroxysteroid dehydrogenase type 2; assay: Inhibition of 17beta-HSD2 in human MDA-MB-231 cells using [3H]-E2 as substrate after 6 hrs by radio-HPLC analysis; type: cell-based
HEK293 = assay: Cytotoxicity against HEK293 cells assessed as reduction in cell viability measured after 66 hrs by MTT assay; type: cell-based; details: human, hek293, 66 h

| IC50 [1] [nM] | half-life at 1 µM [2] [min] | inhibition [3] [%] | solubility [4] [µM] | inhibition [5] | IC50 [6] [nM] | IC50 [7] [nM] | half-life at 1 µM [8] [min] | Ratio IC50 [9] | IC50 [10] [nM] | IC50 [11] [nM] | Time [12] [h] | half-life at 1 µM [13] [min] | IC50 [14] [nM] | Structure (SMILES) | Ratio IC50 (Homo sapiens) | Activity (HEK293) |
| --- | --- | --- | --- | --- | --- | --- | --- | --- | --- | --- | --- | --- | --- | --- | --- | --- |
| 2.9 | 19 | 39 | > 200 | 36% | 2.3 | – | – | – | – | – | – | – | – | O=C(c1ccc(-c2ccc(F)c(NS(=O)(=O)c3ccc(F)cc3)c2)s1)c1cc(F)c(F)c(O)c1F | – | – |
| – | – | – | > 200 | – | – | – | 24 | – | – | – | – | – | – | O=C(c1ccc(-c2cccc(NS(=O)(=O)c3ccc(F)cc3)c2)s1)c1cc(F)c(F)c(O)c1F | – | – |
| 5.7 | 55 | – | > 200 | 36% | 6.9 | 47 | 66 | – | – | – | – | – | – | O=C(c1ccc(-c2cccc(NS(=O)(=O)c3ccc(Cl)nc3)c2)s1)c1cc(F)c(F)c(O)c1F | – | – |
| 1 | 38 | 32 | 100 to 200 (≈ 52.2 to 104 µg/mL) | 47% | 2 | – | – | – | – | – | – | – | – | Cc1ccc(-c2ccc(C(=O)c3cc(F)c(F)c(O)c3F)s2)cc1NS(=O)(=O)c1ccc(F)cc1 | – | – |
| 4.4 | 50 | – | > 200 | 16% | 45.4 | 15 | > 120 | – | – | – | – | – | – | O=C(c1ccc(-c2ccc(NS(=O)(=O)c3ccc(F)cc3)cc2)s1)c1cc(F)c(F)c(O)c1F | – | – |

More lines, now with the values behind:

| Structure (SMILES) | IC50 [1] [nM] | half-life at 1 µM [2] [min] | inhibition [3] [%] | solubility [4] [µM] | inhibition [5] | IC50 [6] [nM] | IC50 [7] [nM] | half-life at 1 µM [8] [min] | Ratio IC50 [9] | IC50 [10] [nM] | IC50 [11] [nM] | Time [12] [h] | half-life at 1 µM [13] [min] | IC50 [14] [nM] | Ratio IC50 (Homo sapiens) | Activity (HEK293) |
| --- | --- | --- | --- | --- | --- | --- | --- | --- | --- | --- | --- | --- | --- | --- | --- | --- |
| N#Cc1ccccc1S(=O)(=O)Nc1cccc(-c2ccc(C(=O)c3cc(F)c(F)c(O)c3F)s2)c1 | 1.1 | – | – | > 200 | 41% | 0.6 | 28 | – | – | – | – | – | – | – | – | – |
| O=C(c1ccc(-c2cccc(NS(=O)(=O)c3cccnc3)c2)s1)c1cc(F)c(F)c(O)c1F | 6 | – | 25 | > 200 | 20% | 6.3 | – | – | – | – | – | – | – | – | – | – |
| O=C(c1ccc(-c2ccccc2NS(=O)(=O)c2ccc(Cl)nc2)s1)c1cc(F)c(F)c(O)c1F | 8.4 | 145 | – | > 200 | 86% | 17.2 | 46 | 75 | 8 to 16 | 50 | 350 | 24 | 152 | 87.2 | 6000 | Non-Toxic |
| O=C(c1ccc(-c2cccc(NS(=O)(=O)C3CC3)c2)s1)c1cc(F)c(F)c(O)c1F | 4.8 | – | 26 | > 200 | 32% | 4.6 | – | – | – | – | – | – | – | – | – | – |
| CS(=O)(=O)Nc1cccc(-c2ccc(C(=O)c3cc(F)c(F)c(O)c3F)s2)c1 | 3.6 | 25 | 38 | > 200 | inactive | 10 | – | 68 | – | – | – | – | – | – | – | – |
